# Columns and labels:
# RC-77T/E cells = test: Androgen sensitivity: cell proliferation by MTT assay, RC-77T/E cells; format: cell-based, human; conditions: 4 days
# Description: (§1) Since androgen receptor expression was observed both cell lines, an experiment was conducted to determine the effects of androgen stimulation on the growth of RC-77N/E and RC-77T/E cells. Cells were grown in serum-free K-SFM at different doses of Methyltrienolone (R1881), a synthetic androgen, for 4 days.
# (§2) In this experiment, 2×10^4 cells per well of each line were grown in serum-free K-SFM with 0.1% BSA in the presence of 0, 0.1, 1.0, 10.0 and 100.0 nM for 4 days. K-SFM was supplemented with or without Methyltrienolone (R1881) (obtained from Perkin-Elmer, Waltham, Mass.), at concentrations of 0.1, 1, 10 and 100 nM, respectively. Cell proliferation was determined by MTT assay according to a procedure as generally described by Wells et al. (“Luteinizing hormone-releasing hormone agonist limits DU-145 prostate cancer growth by attenuating epidermal growth factor receptor signaling.” Clin. Cancer Res. 8: 1251-1257, 2002.).
# (§3) The results from this experiment are illustrated in the chart of FIG. 4, with percent growth being determined by the number of cell counts being expressed as the mean value of triplicate observation. […] Further, the RC-77T/E cells were found responsive to 0.1 nM R1881, while RC-77N/E cells were only responsive at the higher dosage of 1.0 nM.
# RC-77N/E cells = test: Androgen sensitivity: cell proliferation by MTT assay, RC-77N/E cells; format: cell-based, human; conditions: 4 days
# Description: as §1, §2, §3
# [1] = 1.0 nM R1881, serum-free K-SFM with 0.1% BSA
# [2] = 100.0 nM R1881, serum-free K-SFM with 0.1% BSA
smiles,measurement,setting,value
"C[C@]1(O)CC[C@H]2[C@@H]3CCC4=CC(=O)CCC4=C3C=C[C@@]21C [R1881, Methyltrienolone]",cell growth response to androgen stimulation,"RC-77T/E cells; 0.1 nM R1881, serum-free K-SFM with 0.1% BSA",responsive
same,cell growth,RC-77T/E cells; [1],Significant stimulation in cell growth
same,cell growth,RC-77T/E cells; [2],inhibition of cell growth
same,cell growth,RC-77N/E cells; [1],Significant stimulation in cell growth
same,cell growth,RC-77N/E cells; [2],inhibition of cell growth

# Source: patent publication US20140286868A1, “IMMORTALIZED HUMAN PROSTATE CELL LINES” (Tuskegee University, priority 2011, published 2014)
